Reference: patent publication US4486586A, “Cephalosporin derivatives” (Bristol-Myers Company, priority 1983, dated 1984)
≈ marks a conversion by molar mass, not a printed value.

How the values were obtained:
[1] = system: Cephalothinsensitive E. coli, Kl. pneumoniae and Pr. mirabilis; experiment: MIC, two-fold serial agar dilution in Mueller-Hinton agar, group (G-)-Ia; type: cell-based; settings: cephalothin-sensitive E. coli, 5 strains, read-out: Geometric Mean of MIC, (G-)-Ia
Experimental: (§1) In the primary evaluation of the compounds of this invention, the Minimum Inhibitory Concentrations (MIC's) of the compounds were determined by the two-fold serial agar dilution method in Mueller-Hinton agar against 32 strains of test organisms in six groups.
(G-)Ia: Cephalothinsensitive E. coli (2 strains), Kl. pneumoniae (1
strain) and Pr. mirabilis (2 strains)

[2] = system: M. morganii, Ent. cloacae and Ser. marcescens; experiment: MIC, two-fold serial agar dilution in Mueller-Hinton agar, group (G-)-II; type: cell-based; settings: 5 strains, read-out: Geometric Mean of MIC, (G-)-II
Experimental: as §1
(G-)II: M. morganii (1 strain), Ent. cloacae (2 strains) andSer.

[3] = system: Penicillinresistant S. aureus; experiment: MIC, two-fold serial agar dilution in Mueller-Hinton agar, group (G+)-Ib; type: cell-based; settings: Staphylococcus aureus, penicillin-resistant S. aureus, 5 strains, read-out: Geometric Mean of MIC, (G+)-Ib
Experimental: as §1
(G+)Ib: Penicillinresistant S. aureus (5

Ps. aeruginosa = experiment: MIC, two-fold serial agar dilution in Mueller-Hinton agar, group (G-)-III; type: cell-based; settings: Pseudomonas aeruginosa, 7 strains, read-out: Geometric Mean of MIC, (G-)-III
Experimental: as §1
(G-)III: Ps. aeruginosa (7 strains)

[4] = system: Penicillinsensitive S. aureus; experiment: MIC, two-fold serial agar dilution in Mueller-Hinton agar, group (G+)-Ia; type: cell-based; settings: Staphylococcus aureus, penicillin-sensitive S. aureus, 5 strains, read-out: Geometric Mean of MIC, (G+)-Ia
Experimental: as §1

[5] = system: Cephalothinresistant E. coli and Kl. pneumoniae; experiment: MIC, two-fold serial agar dilution in Mueller-Hinton agar, group (G-)-Ib; type: cell-based, E. coli (3 strains) and Kl. pneumoniae (3 strains); settings: read-out: Geometric Mean of MIC, (G-)-Ib
Experimental: as §1
(G-)Ib: Cephalothinresistant E. coli (3 strains) and Kl. pneumoniae (3

Compound	MIC [1] [µg/mL]	MIC [2] [µg/mL]	MIC [3] [µg/mL]	MIC (Ps. aeruginosa) [µg/mL]	MIC [4] [µg/mL]	MIC [5] [µg/mL]
Nc1ccc[n+](C/C=C/C2=C(C(=O)[O-])N3C(=O)C(NC(=O)/C(=N\OC4(C(=O)O)CCC4)c4csc(N)n4)[C@H]3SC2)c1 (stereo partly shown) [Compound I-5E, 7-[(Z)-2-(2-Aminothiazol-4-yl)-2-(1-carboxycyclobut-1-oxyimino)acetamido]-3-[(E)-3-(3-amino-1-pyridinio)-1-propen-1-yl]-3-cephem-4-carboxylate]	0.016 (≈ 0.0267 µM)	0.15 (≈ 0.25 µM)	3.1 (≈ 5.17 µM)	1.9 (≈ 3.17 µM)	1.2 (≈ 2 µM)	–
Nc1cc[n+](C/C=C/C2=C(C(=O)[O-])N3C(=O)C(NC(=O)/C(=N\OC4(C(=O)O)CCC4)c4csc(N)n4)C3SC2)cc1 (stereo not shown) [Compound I-5I, 7-[(Z)-2-(2-Aminothiazol-4-yl)-2-(1-carboxycyclobut-1-oxyimino)acetamido]-3-[(E)-3-(4-aminopyridino)-1-propen-1-yl]-3-cephem-4-carboxylate]	0.019 (≈ 0.0317 µM)	0.22 (≈ 0.367 µM)	4.7 (≈ 7.84 µM)	3.5 (≈ 5.84 µM)	1.6 (≈ 2.67 µM)	0.2 (≈ 0.334 µM)
CSc1scc[n+]1C/C=C/C1=C(C(=O)[O-])N2C(=O)C(NC(=O)/C(=N\OC(C)(C)C(=O)O)c3csc(N)n3)[C@H]2SC1 (stereo partly shown) [Compound I-4G, 7-[(Z)-2-(2-Aminothiazol-4-yl)-2-(2-carboxy-2-propoxyimino)acetamido]-3-[(E)-3-(2-methylthio-3-thiazolio)-1-propen-1-yl]-3-cephem-4-carboxylate]	0.021 (≈ 0.0336 µM)	0.2 (≈ 0.32 µM)	5.4 (≈ 8.64 µM)	3.5 (≈ 5.6 µM)	1.8 (≈ 2.88 µM)	0.22 (≈ 0.352 µM)
CSc1scc[n+]1C/C=C/C1=C(C(=O)[O-])N2C(=O)C(NC(=O)/C(=N\OC3(C(=O)O)CCC3)c3csc(N)n3)[C@H]2SC1 (stereo partly shown) [Compound I-5G, 7-[(Z)-2-(2-Aminothiazol-4-yl)-2-(1-carboxycyclobut-1-oxyimino)acetamido]-3-[(E)-3-(2-methylthio-3-thiazolio)-1-propen-1-yl]-3-cephem-4-carboxylate]	0.014 (≈ 0.022 µM)	0.13 (≈ 0.204 µM)	2.8 (≈ 4.4 µM)	1.9 (≈ 2.98 µM)	0.84 (≈ 1.32 µM)	–
Nc1nc(/C(=N/OC2(C(=O)O)CCC2)C(=O)NC2C(=O)N3C(C(=O)[O-])=C(/C=C/C[n+]4ccccc4)CS[C@H]23)cs1 (stereo partly shown) [Compound I-5B, 7-[(Z)-2-(2-Aminothiazol-4-yl)-2-(1-carboxycyclobut-1-oxyimino)acetamido]-3-[(E)-3-pyridinio-1-propen-1-yl]-3-cephem-4-carboxylate]	0.019 (≈ 0.0325 µM)	0.17 (≈ 0.291 µM)	4.7 (≈ 8.04 µM)	2 (≈ 3.42 µM)	1.6 (≈ 2.74 µM)	0.23 (≈ 0.393 µM)
CO/N=C(\C(=O)NC1C(=O)N2C(C(=O)[O-])=C(/C=C/C[n+]3ccc(C(N)=O)cc3)CS[C@H]12)c1csc(N)n1 (stereo partly shown) [Compound I-1J, 7-[(Z)-2-(2-Aminothiazol-4-yl)-2-methoxyiminoacetamido]-3-[(E)-3-(4-carbamoyl-1-pyridinio)-1-propen-1-yl]-3-cephem-4-carboxylate]	0.016 (≈ 0.0294 µM)	0.13 (≈ 0.239 µM)	0.61 (≈ 1.12 µM)	5.7 (≈ 10.5 µM)	0.26 (≈ 0.478 µM)	0.11 (≈ 0.202 µM)
CO/N=C(\C(=O)NC1C(=O)N2C(C(=O)[O-])=C(/C=C/C[n+]3ccc(N)cc3)CS[C@H]12)c1csc(N)n1 (stereo partly shown) [Compound I-1I, 7-[(Z)-2-(2-Aminothiazol-4-yl)-2-methoxyiminoacetamido]-3-[(E)-3-(4-amino-1-pyridinio)-1-propen-1-yl]-3-cephem-4-carboxylate]	< 0.016	0.15 (≈ 0.291 µM)	0.34 (≈ 0.659 µM)	> 25	0.11 (≈ 0.213 µM)	0.1 (≈ 0.194 µM)
CO/N=C(\C(=O)NC1C(=O)N2C(C(=O)[O-])=C(/C=C/C[n+]3ccccc3)CS[C@H]12)c1csc(N)n1 (stereo partly shown) [Compound I-1B, 7-[(Z)-2-(2-Aminothiazol-4-yl)-2-methoxyiminoacetamido]-3-[(E)-3-pyridinio-1-propen-1-yl]-3-cephem-4-carboxylate]	0.012 (≈ 0.024 µM)	0.1 (≈ 0.2 µM)	0.52 (≈ 1.04 µM)	5.7 (≈ 11.4 µM)	0.2 (≈ 0.4 µM)	0.05 (≈ 0.0999 µM)
CO/N=C(\C(=O)NC1C(=O)N2C(C(=O)[O-])=C(/C=C/C[N+]3(C)CC=CC3)CS[C@H]12)c1csc(N)n1 (stereo partly shown) [Compound I-1F, 7-[(Z)-2-(2-Aminothiazol-4-yl)-2-methoxyiminoacetamido]-3-[(E)-3-(1-methyl-3-pyrrolinio)-1-propen-1-yl]-3-cephem-4-carboxylate]	0.014 (≈ 0.0277 µM)	0.1 (≈ 0.198 µM)	0.39 (≈ 0.773 µM)	3.1 (≈ 6.14 µM)	0.15 (≈ 0.297 µM)	0.074 (≈ 0.147 µM)
Nc1nc(/C(=N/OC2(C(=O)O)CCC2)C(=O)NC2C(=O)N3C(C(=O)[O-])=C(/C=C/C[n+]4ccc5sc(N)nc5c4)CS[C@H]23)cs1 (stereo partly shown) [Compound I-5C, 7-[(Z)-2-(2-Aminothiazol-4-yl)-2-(1-carboxycyclobut-1-oxyimino)acetamido]-3-[(E)-3-(2-amino-5-thiazolo[4,5-c]pyridinio)-1-propen-1-yl]-3-cephem-4-carboxylate]	0.015 (≈ 0.0228 µM)	0.14 (≈ 0.213 µM)	4.4 (≈ 6.7 µM)	2.7 (≈ 4.11 µM)	1.3 (≈ 1.98 µM)	0.15 (≈ 0.228 µM)
CO/N=C(\C(=O)NC1C(=O)N2C(C(=O)[O-])=C(/C=C/C[n+]3cccc(N)c3)CS[C@H]12)c1csc(N)n1 (stereo partly shown) [Compound I-1E, 7-[(Z)-2-(2-Aminothiazol-4-yl)-2-methoxyiminoacetamido]-3-[(E)-3-(3-aminopyridinio)-1-propen-1-yl]-3-cephem-4-carboxylate]	< 0.0053	0.043 (≈ 0.0834 µM)	0.3 (≈ 0.582 µM)	5.7 (≈ 11.1 µM)	0.1 (≈ 0.194 µM)	0.05 (≈ 0.097 µM)
C[N+]1(C/C=C/C2=C(C(=O)[O-])N3C(=O)C(NC(=O)/C(=N\OC4(C(=O)O)CCC4)c4csc(N)n4)C3SC2)CCCC1 (stereo not shown) [Compound I-5A]	0.038 (≈ 0.0643 µM)	0.26 (≈ 0.44 µM)	4.7 (≈ 7.96 µM)	2.6 (≈ 4.4 µM)	1.8 (≈ 3.05 µM)	0.23 (≈ 0.389 µM)
CC(C)(O/N=C(\C(=O)NC1C(=O)N2C(C(=O)[O-])=C(/C=C/C[N+]3(C)CCCC3)CS[C@H]12)c1csc(N)n1)C(=O)O (stereo partly shown) [Compound I-4A, 7-[(Z)-2-(2-Aminothiazol-4-yl)-2-(2-carboxy-2-propoxyimino)acetamido]-3-[(E)-3-(1-methylpyrrolidinio)-1-propen-1-yl]-3-cephem-4-carboxylate]	0.036 (≈ 0.0622 µM)	0.17 (≈ 0.294 µM)	4.1 (≈ 7.09 µM)	2.3 (≈ 3.97 µM)	2.3 (≈ 3.97 µM)	0.2 (≈ 0.346 µM)
CO/N=C(\C(=O)NC1C(=O)N2C(C(=O)[O-])=C(/C=C/C[n+]3ccsc3C)CS[C@H]12)c1csc(N)n1 (stereo partly shown) [Compound I-1H, 7-[(Z)-2-(2-Aminothiazol-4-yl)-2-methoxyiminoacetamido]-3-[(E)-3-(2-methyl-3-thiazolio)-1-propen-1-yl]-3-cephem-4-carboxylate]	0.0093 (≈ 0.0179 µM)	0.074 (≈ 0.142 µM)	0.3 (≈ 0.576 µM)	5.7 (≈ 10.9 µM)	0.1 (≈ 0.192 µM)	0.05 (≈ 0.096 µM)
CO/N=C(\C(=O)NC1C(=O)N2C(C(=O)[O-])=C(/C=C/C[n+]3ccsc3SC)CS[C@H]12)c1csc(N)n1 (stereo partly shown) [Compound I-1G, 7-[(Z)-2-(2-Aminothiazol-4yl)-2-methoxyiminoacetamido]-3-[(E)-3-(2-methylthio-3-thiazolio)-1-propen-1-yl]-3-cephem-4-carboxylate]	0.014 (≈ 0.0253 µM)	0.085 (≈ 0.154 µM)	0.39 (≈ 0.706 µM)	7.6 (≈ 13.8 µM)	0.15 (≈ 0.271 µM)	0.074 (≈ 0.134 µM)
CO/N=C(\C(=O)NC1C(=O)N2C(C(=O)[O-])=C(/C=C/C[N+]3(C)CCCC3)CS[C@H]12)c1csc(N)n1 (stereo partly shown) [Compound I-1A, 7-[(Z)-2-(2-Aminothiazol-4-yl)-2-methoxyiminoacetamido]-3-[(E)-3-(1-methylpyrrolidinio)-1-propen-1-yl]-3-cephem-4-carboxylate]	0.021 (≈ 0.0415 µM)	0.13 (≈ 0.257 µM)	0.59 (≈ 1.16 µM)	5.1 (≈ 10.1 µM)	0.22 (≈ 0.434 µM)	0.11 (≈ 0.217 µM)
CO/N=C(\C(=O)NC1C(=O)N2C(C(=O)[O-])=C(/C=C/C[N+](C)(C)C)CS[C@H]12)c1csc(N)n1 (stereo partly shown) [Compound I-1D, 7-[(Z)-2-(2-Aminothiazol-4-yl)-2-methoxyiminoacetamido]-3-[(E)-3-trimethylammonio-1-propen-1-yl]-3-cephem-4-carboxylate]	0.0093 (≈ 0.0194 µM)	0.1 (≈ 0.208 µM)	0.59 (≈ 1.23 µM)	3.1 (≈ 6.45 µM)	0.17 (≈ 0.354 µM)	0.074 (≈ 0.154 µM)
CC(C)(O/N=C(\C(=O)NC1C(=O)N2C(C(=O)[O-])=C(/C=C/C[n+]3ccccc3)CS[C@H]12)c1csc(N)n1)C(=O)O (stereo partly shown) [Compound I-4B, 7-[(Z)-2-(2-Aminothiazol-4-yl)-2-(2-carboxy-2-propoxyimino)acetamido]-3-[(E)-3-pyridinio-1-propen-1-yl]-3-cephem-4-carboxylate]	0.046 (≈ 0.0803 µM)	0.41 (≈ 0.716 µM)	15 (≈ 26.2 µM)	5 (≈ 8.73 µM)	6 (≈ 10.5 µM)	0.37 (≈ 0.646 µM)
